Paper PMC11253633, “Robust leishmanicidal upshot of some new diphenyl triazine-based molecules” (RSC Advances, 2024)
“Also recorded” adds a separate entry of the source.

How the values were obtained:
[1] = tested on: L. donovani promastigotes; test: Anti-leishmanial screening against L. donovani promastigotes at a single concentration (MTT); type: cell-based, Leishmania donovani; conditions: for Activity against the promastigote parasite (in words) / % Inhibition of L. donovani promastigotes: 100 μM; for inhibition at 100 µM: Leishmania donovani, 72 h; for inhibition at 100 µM / % Inhibition of L. donovani promastigotes: 72 h at 26 °C, MTT
Procedure: Each candidate was evaluated for its in vitro activity against reference strain (MHOM/IN/83/AG83) of extracellular promastigotes and intracellular amastigotes of L. donovani.
Promastigotes were routinely cultured at 26 °C in medium M199 supplemented with 10% heat inactivated fetal bovine serum (FBS, Gibco Laboratories, Mumbai, India), penicillin 100 (IU mL^−1), streptomycin (100 μg mL^−1). Log phase promastigotes were sub-cultured every 72–96 h, the inoculum being 2 × 10^6 cells per mL.[29]
The triazin hybrids series was evaluated for their antileishmanial ability against L. donovani promastigotes in vitro. Promastigotes of L. donovani (1× 10^6 cells per mL) in M199 medium were incubated at 26 °C for 72 h with each compound at a concentration of 100 μM. Miltefosine (MTF) was used as a reference drug, 0.2% DMSO as solvent control. Parasites with media alone were taken as control. Parasite viability was achieved by MTT assay after 72 h (Sharma et al. 2023).[30]

[2] = tested on: L. donovani promastigotes; test: Dose-dependent anti-promastigote activity and determination of IC50 (MTT); type: cell-based; conditions: Leishmania donovani, 72 h, 3 days at 26 °C
Procedure: MTF was used as a standard antileishmanial drug control. The cell viability was evaluated (by MTT Assay) and the mean percentage viability was calculated as follows: Mean cell number of treated parasites/mean cell number of untreated parasites × 100. The 50 and 90% inhibitory concentration (IC50) i.e., the concentration of drugs that decreased the cell growth by 50 and 90% respectively, was determined by graphical extrapolation after plotting the graph of percentage viability vs. concentration of the drug.[31]
Parasite viability was not affected by DMSO (0.2%, data not shown) used as solvent control.[33]

L. donovani amastigotes = test: Anti-amastigote assay in infected THP-1 macrophages (Giemsa); type: cell-based, Leishmania donovani
Procedure: To evaluate the anti-leishmanial effect of the compound T4 and T7 on intracellular L. donovani parasites, macrophage was infected with stationary -phase L. donovani for 6 h. The cells were then washed with saline to remove any non-internalised parasites. To assess the effect of compounds T4 and T7 on intracellular parasites at early stages of infection, macrophages were subsequently treated with T4 and T7 at concentrations of 100, 50, 25, 12.5, or 6.25 μM (refer to Table 3 and Fig. 7) for 6, 24, or 48 hours.
THP-1 cells (5 × 10^5 cells per mL) were cultivated in RPMI-1640 media (Roswell Park Memorial Institute 1640) (Sigma-Aldrich, USA), supplemented with 10% fetal calf serum and maintained at 37 °C with 5% CO2 using phorbol ester as the inducer. These cells were added on circular coverslips (1 × 10^6 cells per mL). Promastigotes of L. donovani were introduced at 1 : 20 ratio. Treatment of the samples was carried out at doses of 100, 50, 25, 12.5, 6.25 and 3.125 μM/72 h. After being taken off, the coverslips were stained with Giemsa. The rate of macrophage infection was then ascertained.

[3] = tested on: Human macrophage THP-1 cell line; test: Cytotoxicity assay on THP-1 cell line (MTT); type: cell-based; conditions: 3.125–100 μM
Procedure: The cell lines were incubated for 48 h at 37 °C in a CO2 incubator with increasing concentrations of test compounds and viability was ascertained. Each point or bar corresponds to the mean ± SEM of triplicate samples and is representative of one of three independent experiments.
THP-1 human monocytic cells were grown at 37 °C in medium RPMI-1640 (pH 7.4, Sigma-Aldrich, St. Louis, MO, USA) supplemented with 10% heat-inactivated FBS for 48 to 72 h in a humidified atmosphere of 5% CO2 and sub-cultured in fresh RPMI-1640 medium at an average density 2 × 10^5 cells per mL (Sharma et al. 2023).[30]
Human macrophage THP-1 cell line of 0.5 × 10^6 cells per mL seeded in RPMI-1640 medium (Sigma-Aldrich, USA) supplemented with 10% FBS (GIBCO) in presence of 5% CO2 at 37 °C in triplicate in 96 well culture plate. The cells were treated with two-fold serially diluted concentrations (100–3.125 μM) of the candidate molecules for 72 h. The IC50 was calculated using MTT assay (Sharma et al. 2023).[30]

[4] = tested on: L. donovani promastigotes; test: Determination of promastigote cellular morphology (light microscopy); type: cell-based, Leishmania donovani; conditions: 25, 50 and 100 μM, 72 h, light microscopy 40×
Procedure: For the evident of morphological changes, the promastigotes (Fig. 3 (C to L)) were incubated in presence of compound T7, T4 and control Ampho B with the different concentration 25 μM, 50 μM, 100 μM shown in (Fig. 3C to L) were analysed by light microscopy (40×magnification) compared to untreated cells (Fig. 4A).
Fig. 4 Morphological Analysis of promastigote stage cells treated with compound T4 and MTF, compared to the untreated control (A) and DMSO treated control (B). Exponential-phase promastigotes (1 × 10^6 cells per mL) were incubated with 25 μm, 50 μm and 100 μm and analysed by light microscopy (40× magnification). (A) Untreated control (B) DMSO Treated cells (C–E) Ampho B, (F–H) T4 and T7 (I–K) at 25, 50, and 100 μM respectively. Scale bar in all is 10 μm.
Variations in the cellular morphology of Leishmania parasites due to the treatment with compounds T4 and T7 was detected microscopically. Briefly, the promastigotes (1× 10^6 cells per mL) were incubated in the absence or presence of test compounds and MTF and AmphoB for 72 h with different concentrations and observed under 40× objective of a phase-contrast microscope. […] Data were recorded by using NIS-Elements imaging software.[32]

[5] = tested on: promastigote form of L. donovani; conditions: cited from earlier work

Molecule | Activity against the promastigote parasite (in words) [1] | inhibition at 100 µM [1] [%] | melting point [°C] | % Inhibition of L. donovani promastigotes [1] [%] | other results
Fc1ccc(N2CCN(c3cc(Sc4nnc(-c5ccccc5)c(-c5ccccc5)n4)ncn3)CC2)cc1 [T15, 3-((6-(4-(4-Fluorophenyl)piperazin-1-yl)pyrimidin-4-yl)thio)-5,6-diphenyl-1,2,4-triazine] | negligible activity; also recorded: minimal activity | 28.8 |  |  | 
CCOC(=O)c1cnc2ccc(OC)cc2c1Sc1nnc(-c2ccccc2)c(-c2ccccc2)n1 [T2, Ethyl 4-((5,6-diphenyl-1,2,4-triazin-3-yl)thio)-6-methoxyquinoline-3-carboxylate] |  | < 90 | 200 to 202 | 71.02 | 
C[C@@H]1[C@H](O)[C@@H](C)/C=C/C=C/C=C/C=C/C=C/C=C/C=C/[C@H](O[C@@H]2O[C@H](C)[C@@H](O)[C@H](N)[C@@H]2O)C[C@@H]2O[C@](O)(C[C@@H](O)C[C@@H](O)[C@H](O)CC[C@@H](O)C[C@@H](O)CC(=O)O[C@H]1C)C[C@H](O)[C@H]2C(=O)O [Ampho B, Amphotericin B, reference compound] |  |  |  |  | IC50 [2]: 1040 nM; Percentage reduction of parasites (amastigote) (L. donovani amastigotes; 6.25 μM): 74%; Percentage reduction of parasites (amastigote) (L. donovani amastigotes; 12.5 μM): 76%; Percentage reduction of parasites (amastigote) (L. donovani amastigotes; 25 μM): 79.44%; Percentage reduction of parasites (amastigote) (L. donovani amastigotes; 50 μM): 82.5%; Percentage reduction of parasites (amastigote) (L. donovani amastigotes; 100 μM): 84.2%
N#Cc1cccnc1N1CCN(c2cc(Sc3nnc(-c4ccccc4)c(-c4ccccc4)n3)ncn2)CC1 [T9, 2-(4-(6-((5,6-Diphenyl-1,2,4-triazin-3-yl)thio)pyrimidin-4-yl)piperazin-1-yl)nicotinonitrile] | negligible activity | 29.8 | 250 to 252 |  | 
CCCCCCCCCCCCCCCCOP(=O)([O-])OCC[N+](C)(C)C [MTF, miltefosine, reference compound] |  |  |  |  | IC50 [2]: 1480 nM; Percentage reduction of parasites (amastigote) (L. donovani amastigotes; 6.25 μM): 68%; Percentage reduction of parasites (amastigote) (L. donovani amastigotes; 12.5 μM): 72%; Percentage reduction of parasites (amastigote) (L. donovani amastigotes; 25 μM): 73%; Percentage reduction of parasites (amastigote) (L. donovani amastigotes; 50 μM): 74%; Percentage reduction of parasites (amastigote) (L. donovani amastigotes; 100 μM): 76%; Cytotoxicity on THP-1 human macrophages (in words) [3]: some cytotoxicity; Cytotoxicity on THP-1 human macrophages (in words) ([3]; listed as Miltefosine): nontoxic
CCN1CCN(c2cc(Sc3nnc(-c4ccccc4)c(-c4ccccc4)n3)ncn2)CC1 [T13, 113-((6-(4-Ethylpiperazin-1-yl)pyrimidin-4-yl)thio)-5,6-diphenyl-1,2,4-triazine] | negligible activity; also recorded: minimal activity |  |  | 18.54 | 
O=[N+]([O-])c1ccc(N2CCN(c3cc(Sc4nnc(-c5ccccc5)c(-c5ccccc5)n4)ncn3)CC2)cc1 [T14, 123-((6-(4-(4-Nitrophenyl)piperazin-1-yl)pyrimidin-4-yl)thio)-5,6-diphenyl-1,2,4-triazine] | negligible activity; also recorded: minimal activity |  |  | 22.76 | 
O=C(CSc1nnc(-c2ccccc2)c(-c2ccccc2)n1)Nc1cc(=O)oc2ccccc12 [T5, 2-((5,6-Diphenyl-1,2,4-triazin-3-yl)thio)-N-(2-oxo-2H-chromen-4-yl)acetamide] |  |  | 200 to 202 | 67.93 | 
c1ccc(-c2nnc(Sc3cc(N4CCCCC4)ncn3)nc2-c2ccccc2)cc1 [T8, 5,6-Diphenyl-3-((6-(piperidin-1-yl)pyrimidin-4-yl)thio)-1,2,4-triazine] | negligible activity | 73.7 |  |  | 
c1ccc(-c2nnc(Sc3cc(N4CCOCC4)ncn3)nc2-c2ccccc2)cc1 [T6, 4-(6-((5,6-Diphenyl-1,2,4-triazin-3-yl)thio)pyrimidin-4-yl)morpholine] | negligible activity | 43.9 | 198 to 200 |  | 
Cc1cc(N2CCN(c3cc(Sc4nnc(-c5ccccc5)c(-c5ccccc5)n4)ncn3)CC2)n2ncnc2n1 [T11, 7-(4-(6-((5,6-Diphenyl-1,2,4-triazin-3-yl)thio)pyrimidin-4-yl)piperazin-1-yl)-5-methyl-[1,2,4]triazolo[1,5-a]pyrimidine] | negligible activity | 32.1 | 280 to 285 |  | 
Clc1ccc2c(N3CCN(c4cc(Sc5nnc(-c6ccccc6)c(-c6ccccc6)n5)ncn4)CC3)ccnc2c1 [T10, 7-Chloro-4-(4-(6-((5,6-diphenyl-1,2,4-triazin-3-yl)thio)pyrimidin-4-yl)piperazin-1-yl) quinoline] | negligible activity | 22.4 | 260 to 262 |  | 
COc1ccccc1N1CCN(c2cc(Sc3nnc(-c4ccccc4)c(-c4ccccc4)n3)ncn2)CC1 [T12, 103-((6-(4-(2-methoxyphenyl)piperazin-1-yl)pyrimidin-4-yl)thio)-5,6-diphenyl-1,2,4-triazine] | negligible activity; also recorded: minimal activity |  |  | 21.86 | 
CC1CCN(c2cc(Sc3nnc(-c4ccccc4)c(-c4ccccc4)n3)ncn2)CC1 [T7, 3-((6-(4-Methylpiperidin-1-yl)pyrimidin-4-yl)thio)-5,6-diphenyl-1,2,4-triazine] |  | > 90 | 250 to 252 | 99.89 | IC50 [2]: 1160 nM; Percentage reduction of parasites (amastigote) (L. donovani amastigotes; 6.25 μM): 56%; Percentage reduction of parasites (amastigote) (L. donovani amastigotes; 12.5 μM): 62%; Percentage reduction of parasites (amastigote) (L. donovani amastigotes; 25 μM): 66%; Percentage reduction of parasites (amastigote) (L. donovani amastigotes; 50 μM): 70.6%; Percentage reduction of parasites (amastigote) (L. donovani amastigotes; 100 μM): 72%; Inhibitory activity against amastigotes (in words) (L. donovani amastigotes; 100–6.25 μM, infected macrophages): good inhibitory activity; also recorded: capable of inhibiting the growth; Cellular morphological alterations in promastigotes (in words) [4]: loss of flagella
1,2,4-triazino[5,6-b]indol-3-ylthio-1,3,5-triazine [1 (Fig. 2)] |  |  |  |  | fold more selectivity in comparison to pentamidine [5]: 20 fold; fold more selectivity in comparison to sodium stibogluconate [5]: 10 fold; inhibition against promastigote form of L. donovani [5]: more than 90%; selectivity (S.I.) [5]: 56.61
Clc1ccc2c(Sc3nnc(-c4ccccc4)c(-c4ccccc4)n3)ccnc2c1 [T1, 7-Chloro-4-((5,6-diphenyl-1,2,4-triazin-3-yl)thio)quinoline] |  |  | 250 to 252 | 66.78 | 
CCOC(=O)c1cnc2ccc(C)cc2c1Sc1nnc(-c2ccccc2)c(-c2ccccc2)n1 [T3, Ethyl 4-((5,6-diphenyl-1,2,4-triazin-3-yl)thio)-6-methylquinoline-3-carboxylate] |  | < 90 | 210 to 212 | 83.43 | 
